Where two headings read alike, the source gives them in different places.
Key:
PI3K [1] = target: T1, PI3K (Homo sapiens, UniProt P48736); assay: Fluorescence polarization assay for PI3K; type: biochemical; conditions: read-out: PI3 Kinase γ IC50
T1 construct: PI3 Kinase γ IC50; other: PI3 Kinase γ; other: PI3 Kinase γ isoform, fluorescence polarization
How it was run: (§1)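 PI3K was preincubated with compound (final DMSO 1%), and the reaction was started with PIP2/ATP substrate and run 30–60 min. It was stopped with a detector mix giving 10 nM red probe and 70 nM GST-GRP.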

PI3K [2] = target: T2, PI3K (Homo sapiens, UniProt P42336); assay: Fluorescence polarization assay for PI3K; type: biochemical; conditions: read-out: PI3 Kinase α IC50
T2 construct: PI3 Kinase α IC50; other: PI3 Kinase α; other: PI3 Kinase α isoform, fluorescence polarization
How it was run: as §1

prostate line LNCap = assay: In vitro cell culture growth assay (MTS), LNCap; type: cell-based; conditions: Homo sapiens, LNCaP, 72 h, LNCap cells, three days after drug treatment
How it was run: (§2)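 Growth is reported as percent of vehicle-treated control grown in the same plate, with viability determined by metabolic conversion of MTS dye and absorbance read at 490 nm. Compounds were applied one day after plating and left for three days.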

breast line MDA468 = assay: In vitro cell culture growth assay (MTS), MDA468; type: cell-based; conditions: Homo sapiens, 72 h, MDA468 cells, three days after drug treatment
How it was run: as §2

Human mTOR (FLAG-TOR) = target: T3, Human mTOR (FLAG-TOR) (Homo sapiens, UniProt P42345); assay: Human mTOR kinase assay with purified enzyme, DELFIA format; type: biochemical
T3 construct: FLAG
How it was run: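 Purified FLAG-mTOR in HEPES pH 7.4 buffer with 10 mM MnCl2 was preincubated with inhibitor and reacted 2 h at room temperature with His6-S6K substrate, then stopped with EDTA/EGTA. Phospho-T389 S6K detected by DELFIA with Eu-labelled antibody (40 ng/mL) after plate capture; inhibition computed from signal.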

[3] = PI3 Kinase γ isoform, fluorescence polarization
[4] = PI3 Kinase α isoform, fluorescence polarization
[5] = purified human mTOR enzyme, DELFIA format

T1 sequence (P48736 whole entry, canonical isoform): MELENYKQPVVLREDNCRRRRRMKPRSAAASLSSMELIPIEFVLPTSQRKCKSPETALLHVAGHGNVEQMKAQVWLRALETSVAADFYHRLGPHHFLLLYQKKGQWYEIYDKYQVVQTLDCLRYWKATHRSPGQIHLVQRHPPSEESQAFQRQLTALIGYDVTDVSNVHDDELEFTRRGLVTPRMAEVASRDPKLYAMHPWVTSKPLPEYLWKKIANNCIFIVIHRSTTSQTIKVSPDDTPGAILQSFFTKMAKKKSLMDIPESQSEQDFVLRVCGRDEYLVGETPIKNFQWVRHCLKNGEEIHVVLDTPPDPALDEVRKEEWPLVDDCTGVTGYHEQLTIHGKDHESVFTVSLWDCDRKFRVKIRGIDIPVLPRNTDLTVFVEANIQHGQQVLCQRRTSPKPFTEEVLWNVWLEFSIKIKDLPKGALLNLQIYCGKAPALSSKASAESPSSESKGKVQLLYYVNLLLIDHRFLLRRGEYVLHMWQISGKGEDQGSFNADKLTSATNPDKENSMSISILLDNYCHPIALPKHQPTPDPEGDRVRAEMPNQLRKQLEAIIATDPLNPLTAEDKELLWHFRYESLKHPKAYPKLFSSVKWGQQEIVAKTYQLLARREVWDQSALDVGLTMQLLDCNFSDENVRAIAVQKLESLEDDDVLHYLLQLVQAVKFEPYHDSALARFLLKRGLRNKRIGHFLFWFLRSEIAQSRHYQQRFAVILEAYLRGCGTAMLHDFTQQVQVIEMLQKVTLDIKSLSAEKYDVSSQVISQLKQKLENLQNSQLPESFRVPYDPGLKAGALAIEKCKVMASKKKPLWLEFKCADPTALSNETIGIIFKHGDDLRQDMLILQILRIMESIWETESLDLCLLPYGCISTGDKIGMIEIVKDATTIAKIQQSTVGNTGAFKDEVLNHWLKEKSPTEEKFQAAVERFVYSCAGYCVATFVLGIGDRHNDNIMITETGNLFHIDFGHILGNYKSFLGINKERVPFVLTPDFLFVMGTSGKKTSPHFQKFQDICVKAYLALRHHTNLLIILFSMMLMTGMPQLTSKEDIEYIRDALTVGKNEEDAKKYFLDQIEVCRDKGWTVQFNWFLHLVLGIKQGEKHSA
T2 sequence (P42336 whole entry, canonical isoform): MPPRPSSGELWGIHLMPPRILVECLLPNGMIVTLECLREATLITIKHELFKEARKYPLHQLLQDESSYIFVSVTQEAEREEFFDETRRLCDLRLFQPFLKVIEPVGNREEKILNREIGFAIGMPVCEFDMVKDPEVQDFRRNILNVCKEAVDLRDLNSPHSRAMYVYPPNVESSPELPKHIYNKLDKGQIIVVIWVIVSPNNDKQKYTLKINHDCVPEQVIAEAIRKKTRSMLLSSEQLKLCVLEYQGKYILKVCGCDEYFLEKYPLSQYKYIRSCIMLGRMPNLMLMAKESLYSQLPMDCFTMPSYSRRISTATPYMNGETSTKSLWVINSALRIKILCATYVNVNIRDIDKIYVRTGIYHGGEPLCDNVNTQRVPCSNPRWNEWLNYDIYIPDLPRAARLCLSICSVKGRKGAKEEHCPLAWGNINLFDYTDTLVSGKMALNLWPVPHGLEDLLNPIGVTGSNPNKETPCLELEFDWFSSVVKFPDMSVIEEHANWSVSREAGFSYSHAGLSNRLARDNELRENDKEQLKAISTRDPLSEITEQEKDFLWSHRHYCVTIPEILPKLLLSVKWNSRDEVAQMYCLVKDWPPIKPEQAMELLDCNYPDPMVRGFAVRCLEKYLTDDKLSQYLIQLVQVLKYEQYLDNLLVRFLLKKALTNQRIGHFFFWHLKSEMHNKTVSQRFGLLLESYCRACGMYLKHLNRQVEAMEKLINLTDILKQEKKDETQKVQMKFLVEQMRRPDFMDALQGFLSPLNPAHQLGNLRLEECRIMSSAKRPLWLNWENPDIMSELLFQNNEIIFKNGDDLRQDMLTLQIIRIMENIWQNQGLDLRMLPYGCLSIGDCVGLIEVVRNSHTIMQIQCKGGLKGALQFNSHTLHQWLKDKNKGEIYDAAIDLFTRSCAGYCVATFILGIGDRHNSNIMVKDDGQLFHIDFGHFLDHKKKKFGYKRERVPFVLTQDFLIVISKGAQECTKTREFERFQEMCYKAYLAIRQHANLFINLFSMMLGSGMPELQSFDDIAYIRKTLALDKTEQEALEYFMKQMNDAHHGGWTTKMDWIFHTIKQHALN

Row | Structure (SMILES) | IC50 (PI3K [1]; PI3 Kinase γ) [nM] | IC50 (PI3K [2]; PI3 Kinase α) [nM] | IC50 (prostate line LNCap) [nM] | IC50 (breast line MDA468) [nM] | IC50 (Human mTOR (FLAG-TOR)) [nM] | IC50 (PI3K [1]; [3]) [nM] | IC50 (PI3K [2]; [4]) [nM] | IC50 (Human mTOR (FLAG-TOR); [5]) [nM]
1 | CNC(=O)Nc1ccc(-c2nc(N3CC4CCC(C3)O4)c3cnn(C4CCN(Cc5cccnc5)CC4)c3n2)cc1 [Example 27, 1-methyl-3-(4-{4-(8-oxa-3-azabicyclo[3.2.1]oct-3-yl)-1-[1-(pyridin-3-ylmethyl)piperidin-4-yl]-1H-pyrazolo[3,4-d]pyrimidin-6-yl}phenyl)urea] | > 10000 | 677 | 0.8 | 27 | 0.47 |  |  | 
2 | CC(=O)N1CC2CN(c3nc(-c4ccc(NC(=O)Nc5ccncc5)cc4)nc4c3cnn4CC(F)(F)F)CC(C1)O2 [Example 339, 1-{4-[4-(7-acetyl-9-oxa-3,7-diazabicyclo[3.3.1]non-3-yl)-1-(2,2,2-trifluoroethyl)-1H-pyrazolo[3,4-d]pyrimidin-6-yl]phenyl}-3-pyridin-4-ylurea] |  |  | > 60000 | > 60000 |  | > 10000 | 9420 | > 6330
3 | CNC(=O)Nc1ccc(-c2nc(N3CC4CCC(C3)O4)c3cnn(C4CCN(C(=O)OC)CC4)c3n2)cc1 [Example 7, methyl 4-[6-{4-[(methylcarbamoyl)amino]phenyl}-4-(8-oxa-3-azabicyclo[3.2.1]oct-3-yl)-1H-pyrazolo[3,4-d]pyrimidin-1-yl]piperidine-1-carboxylate] | > 10000 | 1800 | 26 | 80 | 0.21 |  |  | 
4 | CS(=O)(=O)N1CCN(Cc2cc3nc(-c4ccc(NC(=O)NC5CC5)cc4)nc(N4CC5CCC(C4)O5)c3s2)CC1 [Example 431, 1-cyclopropyl-3-{4-[6-{[4-(methylsulfonyl)piperazin-1-yl]methyl}-4-(8-oxa-3-azabicyclo[3.2.1]oct-3-yl)thieno[3,2-d]pyrimidin-2-yl]phenyl}urea] |  |  | 32 | 200 |  | 1530 | 179 | 1.01
5 | O=C(Nc1ccc(-c2nc(N3C4CCC3COC4)c3cnn(CC(F)(F)F)c3n2)cc1)Nc1cccnc1 [Example 268, 1-{4-[4-(3-oxa-8-azabicyclo[3.2.1]oct-8-yl)-1-(2,2,2-trifluoroethyl)-1H-pyrazolo[3,4-d]pyrimidin-6-yl]phenyl}-3-pyridin-3-ylurea] | 3010 | 227 | < 1 | 3 | 0.2 |  |  | 
6 | Cn1ncc2c(N3CC4CCC(C3)O4)nc(-c3ccc(NC(=O)Nc4ccc(CO)cc4)cc3)nc21 [Example 231, 1-[4-(hydroxymethyl)phenyl]-3-{4-[1-methyl-4-(8-oxa-3-azabicyclo[3.2.1]oct-3-yl)-1H-pyrazolo[3,4-d]pyrimidin-6-yl]phenyl}urea] | 468 | 47 | < 1 | < 1 | 0.13 |  |  | 
7 | CCn1ncc2c(N3CC4CCC(C3)O4)nc(-c3ccc(NC(=O)Nc4ccc(C(=O)NN(C)C)cc4)cc3)nc21 [Example 289, 1-{4-[(2,2-dimethylhydrazino)carbonyl]phenyl}-3-{4-[1-ethyl-4-(8-oxa-3-azabicyclo[3.2.1]oct-3-yl)-1H-pyrazolo[3,4-d]pyrimidin-6-yl]phenyl}urea] | 706 | 109 | < 1 | < 1 | 0.33 |  |  | 
8 | CCn1ncc2c(N3CC4CCC(C3)O4)nc(-c3ccc(NC(=O)N[C@H]4CC[C@@H](N)CC4)cc3)nc21 (relative stereo) [Example 229, 1-(cis-4-aminocyclohexyl)-3-{4-[1-ethyl-4-(8-oxa-3-azabicyclo[3.2.1]oct-3-yl)-1H-pyrazolo[3,4-d]pyrimidin-6-yl]phenyl}urea] | > 10000 | 2850 | 4900 | 4000 | 245 |  |  | 
9 | O=C(Nc1ccc(CO)cc1)Nc1ccc(-c2nc(N3CC4CCC(C3)O4)c3cnn(CC(F)(F)F)c3n2)cc1 [Example 253, 1-[4-(hydroxymethyl)phenyl]-3-{4-[4-(8-oxa-3-azabicyclo[3.2.1]oct-3-yl)-1-(2,2,2-trifluoroethyl)-1H-pyrazolo[3,4-d]pyrimidin-6-yl]phenyl}urea] | 780 | 56 | 1 | < 1 | 0.15 |  |  | 
10 | CCNC(=O)Nc1ccc(-c2nc(N3CC4CCC(C3)O4)c3cnn(C4CCN(C(=O)OC(C)C)CC4)c3n2)cc1 [Example 67, isopropyl 4-[6-{4-[(ethylcarbamoyl)amino]phenyl}-4-(8-oxa-3-azabicyclo[3.2.1]oct-3-yl)-1H-pyrazolo[3,4-d]pyrimidin-1-yl]piperidine-1-carboxylate] | 9500 | 2460 | 17 | 150 | 0.23 |  |  | 

— patent US8129371B2, “Thienopyrimidine and pyrazolopyrimidine compounds and their use as mTOR kinase and PI3 kinase inhibitors” (Wyeth LLC, priority 2007, dated 2012)
